From the supplement of paper PMC10307832

Assays:
Experiment in all cases: relative viability (nuclei count vs DMSO), 5 days (fraction); higher = more cells survive
NCI-H2085 = system: NCI-H2085
Outline: (§1)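 Lung cancer cell lines were pin-tool dosed in 1536-well plates on the day after seeding, with either a lone drug or a fixed anchor-drug dose plus five library-drug doses (not always all listed) in √10 steps. Nuclei were counted on 4× images after 5 days. Relative viability is the ratio of treated-well to vehicle-well nuclei counts, with each value a median of duplicate plates.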

HCC-78 = system: HCC-78
Outline: as §1

HCC-15 = system: HCC-15
Outline: as §1

NCI-H2347 = system: NCI-H2347
Outline: as §1

NCI-H358 = system: NCI-H358
Outline: as §1

NCI-H1993 = system: NCI-H1993
Outline: as §1

NCI-H650 = system: NCI-H650
Outline: as §1

HARA = system: HARA
Outline: as §1

NCI-H460 = system: NCI-H460
Outline: as §1

ABC-1 = system: ABC-1
Outline: as §1

NCI-H838 = system: NCI-H838
Outline: as §1

NCI-H2009 = system: NCI-H2009
Outline: as §1

SW 1573 = system: SW 1573
Outline: as §1

NCI-H1915 = system: NCI-H1915
Outline: as §1

LU99A = system: LU99A
Outline: as §1

LC-2-ad = system: LC-2-ad
Outline: as §1

NCI-H2126 = system: NCI-H2126
Outline: as §1

NCI-H1651 = system: NCI-H1651
Outline: as §1

UMC-11 = system: UMC-11
Outline: as §1

EPLC-272H = system: EPLC-272H
Outline: as §1

COR-L23 = system: COR-L23
Outline: as §1

PC-14 = system: PC-14
Outline: as §1

With `C[C@@H]1CN(CC(=O)Nc2ccc3c(c2)Cc2cccc(-c4cc(=O)cc(N5CCOCC5)o4)c2S3)C[C@H](C)O1` + CS(=O)(=O)N1CCN(Cc2cc3nc(-c4cccc5[nH]ncc45)nc(N4CCOCC4)c3s2)CC1 [Pictilisib] (partner 1 µM) the relative viability (NCI-H2085; first compound 0.04 µM) was 0.476, the relative viability (NCI-H2085; first compound 0.1265 µM) was 0.484 and the relative viability (NCI-H2085; first compound 0.4 µM) was 0.425. The relative viability (NCI-H2085; first compound 4 µM) was 0.492, the relative viability (HCC-78; first compound 0.04 µM) was 0.208 and the relative viability (HCC-78; first compound 0.1265 µM) was 0.2. The relative viability (HCC-78; first compound 0.4 µM) was 0.168, the relative viability (HCC-78; first compound 4 µM) was 0.265 and the relative viability (HCC-15; first compound 0.04 µM) was 0.815. It also gave a relative viability (HCC-15; first compound 0.1265 µM) of 0.649, a relative viability (HCC-15; first compound 0.4 µM) of 0.796 and a relative viability (HCC-15; first compound 4 µM) of 0.636. The relative viability (NCI-H2347; first compound 0.04 µM) was 0.961, the relative viability (NCI-H2347; first compound 0.1265 µM) was 0.577 and the relative viability (NCI-H2347; first compound 0.4 µM) was 0.747. For the same compound, the relative viability (NCI-H2347; first compound 4 µM) was 0.313, the relative viability (NCI-H358; first compound 0.04 µM) was 0.355 and the relative viability (NCI-H358; first compound 0.1265 µM) was 0.343. For the same compound, the relative viability (NCI-H358; first compound 0.4 µM) was 0.3, the relative viability (NCI-H358; first compound 4 µM) was 0.247 and the relative viability (NCI-H1993; first compound 0.04 µM) was 0.76. For the same compound, the relative viability (NCI-H1993; first compound 0.1265 µM) was 0.927, the relative viability (NCI-H1993; first compound 0.4 µM) was 0.994 and the relative viability (NCI-H1993; first compound 4 µM) was 0.912. For the same compound, the relative viability (NCI-H650; first compound 0.04 µM) was 0.828, the relative viability (NCI-H650; first compound 0.1265 µM) was 0.886 and the relative viability (NCI-H650; first compound 0.4 µM) was 0.89. For the same compound, the relative viability (NCI-H650; first compound 4 µM) was 0.806, the relative viability (HARA; first compound 0.04 µM) was 0.383 and the relative viability (HARA; first compound 0.1265 µM) was 0.37. The relative viability (HARA; first compound 0.4 µM) was 0.226, the relative viability (HARA; first compound 4 µM) was 0.372 and the relative viability (NCI-H460; first compound 0.04 µM) was 0.258. It also gave a relative viability (NCI-H460; first compound 0.1265 µM) of 0.404, a relative viability (NCI-H460; first compound 0.4 µM) of 0.279 and a relative viability (NCI-H460; first compound 4 µM) of 0.346. It also gave a relative viability (ABC-1; first compound 0.1265 µM) of 0.69, a relative viability (ABC-1; first compound 0.4 µM) of 0.636 and a relative viability (ABC-1; first compound 4 µM) of 0.854. The relative viability (NCI-H838; first compound 0.04 µM) was 0.472, the relative viability (NCI-H838; first compound 0.1265 µM) was 0.402 and the relative viability (NCI-H838; first compound 0.4 µM) was 0.451. The relative viability (NCI-H838; first compound 4 µM) was 0.29, the relative viability (NCI-H2009; first compound 0.04 µM) was 0.909 and the relative viability (NCI-H2009; first compound 0.1265 µM) was 0.84. It also gave a relative viability (NCI-H2009; first compound 0.4 µM) of 0.816, a relative viability (NCI-H2009; first compound 4 µM) of 0.588 and a relative viability (SW 1573; first compound 0.04 µM) of 0.536. It also gave a relative viability (SW 1573; first compound 0.1265 µM) of 0.531, a relative viability (SW 1573; first compound 0.4 µM) of 0.489 and a relative viability (SW 1573; first compound 4 µM) of 0.486. The relative viability (NCI-H1915; first compound 0.04 µM) was 0.888, the relative viability (NCI-H1915; first compound 0.1265 µM) was 0.961 and the relative viability (NCI-H1915; first compound 0.4 µM) was 0.97. For the same compound, the relative viability (NCI-H1915; first compound 4 µM) was 0.774, the relative viability (LU99A; first compound 0.04 µM) was 0.313 and the relative viability (LU99A; first compound 0.1265 µM) was 0.382. It also gave a relative viability (LU99A; first compound 0.4 µM) of 0.349, a relative viability (LU99A; first compound 4 µM) of 0.378 and a relative viability (LC-2-ad; first compound 0.04 µM) of 1.12. For the same compound, the relative viability (LC-2-ad; first compound 0.1265 µM) was 0.43, the relative viability (LC-2-ad; first compound 0.4 µM) was 0.29 and the relative viability (LC-2-ad; first compound 4 µM) was 0.537. The relative viability (NCI-H2126; first compound 0.04 µM) was 0.536, the relative viability (NCI-H2126; first compound 0.1265 µM) was 0.49 and the relative viability (NCI-H2126; first compound 0.4 µM) was 0.459. The relative viability (NCI-H2126; first compound 4 µM) was 0.487, the relative viability (NCI-H1651; first compound 0.04 µM) was 0.59 and the relative viability (NCI-H1651; first compound 0.1265 µM) was 0.491. For the same compound, the relative viability (NCI-H1651; first compound 0.4 µM) was 0.612, the relative viability (NCI-H1651; first compound 4 µM) was 0.568 and the relative viability (UMC-11; first compound 0.04 µM) was 0.769. The relative viability (UMC-11; first compound 0.1265 µM) was 0.791, the relative viability (UMC-11; first compound 0.4 µM) was 0.75 and the relative viability (UMC-11; first compound 4 µM) was 0.649. It also gave a relative viability (EPLC-272H; first compound 0.04 µM) of 0.272, a relative viability (EPLC-272H; first compound 0.1265 µM) of 0.305 and a relative viability (EPLC-272H; first compound 0.4 µM) of 0.3. For the same compound, the relative viability (EPLC-272H; first compound 4 µM) was 0.289, the relative viability (COR-L23; first compound 0.04 µM) was 0.854 and the relative viability (COR-L23; first compound 0.1265 µM) was 0.785. For the same compound, the relative viability (COR-L23; first compound 0.4 µM) was 0.745, the relative viability (COR-L23; first compound 4 µM) was 0.755 and the relative viability (PC-14; first compound 0.04 µM) was 0.685. For the same compound, the relative viability (PC-14; first compound 0.1265 µM) was 0.629, the relative viability (PC-14; first compound 0.4 µM) was 0.687 and the relative viability (PC-14; first compound 4 µM) was 0.588.

`CC(C)Oc1cc(Nc2nc(N[C@@H](C)c3ccc(F)cn3)ncc2Cl)n[nH]1` [AZ23] + CS(=O)(=O)CCNCc1ccc(-c2ccc3ncnc(Nc4ccc(OCc5cccc(F)c5)c(Cl)c4)c3c2)o1 [Lapatinib] (partner 2 µM) gave a relative viability (NCI-H2085; first compound 0.01 µM) of 0.771, a relative viability (NCI-H2085; first compound 0.03162 µM) of 0.735 and a relative viability (NCI-H2085; first compound 0.3162 µM) of 0.772. It also gave a relative viability (HCC-78; first compound 0.01 µM) of 0.469, a relative viability (HCC-78; first compound 0.03162 µM) of 1 and a relative viability (HCC-78; first compound 0.3162 µM) of 0.456. For the same compound, the relative viability (HCC-15; first compound 0.01 µM) was 1.08, the relative viability (HCC-15; first compound 0.03162 µM) was 0.839 and the relative viability (HCC-15; first compound 0.3162 µM) was 0.784. The relative viability (NCI-H2347; first compound 0.01 µM) was 1.05, the relative viability (NCI-H2347; first compound 0.03162 µM) was 1.02 and the relative viability (NCI-H2347; first compound 0.3162 µM) was 1.02. The relative viability (NCI-H358; first compound 0.01 µM) was 0.505, the relative viability (NCI-H358; first compound 0.03162 µM) was 0.433 and the relative viability (NCI-H358; first compound 0.3162 µM) was 0.392. The relative viability (NCI-H1993; first compound 0.01 µM) was 0.808, the relative viability (NCI-H1993; first compound 0.3162 µM) was 0.946 and the relative viability (NCI-H650; first compound 0.01 µM) was 0.649. The relative viability (NCI-H650; first compound 0.03162 µM) was 1.19, the relative viability (NCI-H650; first compound 0.3162 µM) was 0.849 and the relative viability (HARA; first compound 0.01 µM) was 0.862. For the same compound, the relative viability (HARA; first compound 0.03162 µM) was 0.708, the relative viability (HARA; first compound 0.3162 µM) was 0.584 and the relative viability (NCI-H460; first compound 0.01 µM) was 0.519. The relative viability (NCI-H460; first compound 0.03162 µM) was 1.1, the relative viability (NCI-H460; first compound 0.3162 µM) was 1.5 and the relative viability (ABC-1; first compound 0.01 µM) was 1.15. The relative viability (ABC-1; first compound 0.03162 µM) was 1.24, the relative viability (ABC-1; first compound 0.3162 µM) was 1.17 and the relative viability (NCI-H838; first compound 0.01 µM) was 0.99. It also gave a relative viability (NCI-H838; first compound 0.03162 µM) of 1.06, a relative viability (NCI-H838; first compound 0.3162 µM) of 0.908 and a relative viability (NCI-H2009; first compound 0.01 µM) of 0.97. The relative viability (NCI-H2009; first compound 0.03162 µM) was 0.997, the relative viability (NCI-H2009; first compound 0.3162 µM) was 0.918 and the relative viability (SW 1573; first compound 0.01 µM) was 1.21. The relative viability (SW 1573; first compound 0.03162 µM) was 1.11, the relative viability (SW 1573; first compound 0.3162 µM) was 0.939 and the relative viability (NCI-H1915; first compound 0.01 µM) was 1.12. For the same compound, the relative viability (NCI-H1915; first compound 0.03162 µM) was 0.972, the relative viability (NCI-H1915; first compound 0.3162 µM) was 1.01 and the relative viability (LU99A; first compound 0.01 µM) was 1.2. The relative viability (LU99A; first compound 0.03162 µM) was 1.08, the relative viability (LU99A; first compound 0.3162 µM) was 1.09 and the relative viability (LC-2-ad; first compound 0.01 µM) was 1.32. For the same compound, the relative viability (LC-2-ad; first compound 0.03162 µM) was 0.997, the relative viability (LC-2-ad; first compound 0.3162 µM) was 0.912 and the relative viability (NCI-H2126; first compound 0.01 µM) was 0.838. The relative viability (NCI-H2126; first compound 0.03162 µM) was 0.821, the relative viability (NCI-H2126; first compound 0.3162 µM) was 0.842 and the relative viability (NCI-H1651; first compound 0.01 µM) was 0.685. The relative viability (NCI-H1651; first compound 0.03162 µM) was 0.921, the relative viability (NCI-H1651; first compound 0.3162 µM) was 0.973 and the relative viability (UMC-11; first compound 0.01 µM) was 0.946. For the same compound, the relative viability (UMC-11; first compound 0.03162 µM) was 0.994, the relative viability (UMC-11; first compound 0.3162 µM) was 1.02 and the relative viability (EPLC-272H; first compound 0.01 µM) was 0.885. The relative viability (EPLC-272H; first compound 0.03162 µM) was 1.16, the relative viability (COR-L23; first compound 0.01 µM) was 1.12 and the relative viability (COR-L23; first compound 0.03162 µM) was 1.1. For the same compound, the relative viability (COR-L23; first compound 0.3162 µM) was 1, the relative viability (PC-14; first compound 0.01 µM) was 0.351 and the relative viability (PC-14; first compound 0.03162 µM) was 0.404. It also gave a relative viability (PC-14; first compound 0.3162 µM) of 0.348.
